# System: rgRSV224 virus
# Assay: Antiviral activity: inhibition of rgRSV224 (GFP-expressing RSV) replication in HeLa cells, GFP expression read-out
# Type: cell-based, respiratory syncytial virus (RSV)
# Settings: human respiratory syncytial virus, HeLa, read-out: RSV HELA pEC50, rgRSV224 virus (MOI=1) in HeLa cells, GFP read-out (converted)
# Experimental: (§1) Black 384-well clear-bottom microtiter plates (Corning, Amsterdam, The Netherlands) were filled via acoustic drop ejection using the echo liquid handler (Labcyte, Sunnyvale, Calif.). 200 nL of compound stock solutions (100% DMSO) were transferred to the assay plates. 9 serial 4-fold dilutions of compound were made, creating per quadrant the same compound concentration. The assay was initiated by adding 10 μL of culture medium to each well (RPMI medium without phenol red, 10% FBS-heat inactivated, 0.04% gentamycin (50 mg/mL). All addition steps are done by using a multidrop dispenser (Thermo Scientific, Erembodegem, Belgium). Next, rgRSV224 virus (MOI=1) diluted in culture medium was added to the plates. rgRSV224 virus is an engineered virus that includes an additional GFP gene (Hallak LK, Spillmann D, Collins PL, Peeples Me. Glycosaminoglycan sulfation requirements for respiratory syncytial virus infection; Journal of virology (2000), 74(22), 10508-13) and was in-licensed from the NIH (Bethesda, Md., USA). Finally, 20 μL of a HeLa cell suspension (3,000 cells/well) were plated. Medium, virus- and mock-infected controls were included in each test. The wells contain 0.05% DMSO per volume. Cells were incubated at 37° C. in a 5% CO2 atmosphere. Three days post-virus exposure, viral replication was quantified by measuring GFP expression in the cells by an in house developed MSM laser microscope (Tibotec, Beerse, Belgium). The EC50 was defined as the 50% inhibitory concentration for GFP expression. In parallel, compounds were incubated for three days in a set of white 384-well microtiter plates (Corning) and the cytotoxicity of compounds in HeLa cells was determined by measuring the ATP content of the cells using the ATPlite kit (Perkin Elmer, Zaventem, Belgium) according to the manufacturer's instructions. The CC50 was defined as the 50% concentration for cytotoxicity.
row,Structure (SMILES),EC50 [µM]
1,CCc1cc(C(=O)N2CCCCC[C@H]2C)nc2cc(-c3ccc(C4[C@@H](C(=O)O)C4(F)F)cc3F)nn12 (mixture of isomers) [Compound O18],0.191
2,CCc1cc(C(=O)N2CCCC3(CC=CC3)C2C)nc2cc(-c3ccc(-c4ccc(C(=O)O)cn4)cc3F)nn12 (racemic) [Compound F50],0.324
3,CCc1cc(C(=O)N2CCc3ccsc3C2C)nc2cc(-c3ccc(-c4ccc(C(=O)O)cn4)cc3F)nn12 (racemic) [Compound F55],0.12
4,CCc1cc(C(=O)N2CCn3c(Cl)ccc3C2C)nc2cc(-c3ccc(-c4ccc(C(=O)O)cn4)cc3F)nn12 (racemic) [Compound F56],0.155
5,CCc1cc(C(=O)N2CCc3sc(C)cc3C2C)nc2cc(-c3ccc(-c4ccc(C(=O)O)cn4)cc3F)nn12 (racemic) [Compound F58],0.17
6,CCc1cc(C(=O)N2CCCn3cccc3C2C)nc2cc(-c3ccc(-c4ccc(C(=O)O)cn4)cc3F)nn12 (racemic) [Compound F59],0.191
7,CCc1cc(C(=O)N2CCn3cccc3C2C)nc2cc(-c3ccc4c(c3F)OCC(C(=O)O)=C4)nn12 (racemic) [Compound F61],0.0457
8,C[C@@H]1CCCCCN1C(=O)c1cc(C2(C)COC2)n2nc(-c3ccc4c(c3F)OCC(C(=O)O)=C4)cc2n1 (racemic) [Compound F62],0.0575
9,CC1c2ccsc2CCN1C(=O)c1cc(C2(C)CC2)n2nc(-c3ccc4c(c3F)OCC(C(=O)O)=C4)cc2n1 (racemic) [Compound F67],0.0398
10,C[C@@H]1c2ccccc2CCN1C(=O)c1cc(C2(C)CC2)n2nc(-c3ccc(C4C[C@H]4C(=O)O)cc3F)cc2n1 (mixture of isomers) [Compound O8],0.0117
11,C[C@@H]1CCCCCN1C(=O)c1cc(C2(C)CC2)n2nc(-c3cccc([C@H]4C[C@@H]4C(=O)O)c3F)cc2n1 (racemic) [Compound O9],0.11
12,CCCC(C)N(CC)C(=O)c1cc(CC)n2nc(-c3ccc(C4C[C@H]4C(=O)O)cc3F)cc2n1 (mixture of isomers) [Compound O13],0.141
13,CCc1cc(C(=O)N2CCCCC[C@H]2C)nc2cc(-c3ccc(N(C)[C@H]4C[C@H](C(=O)O)C4)cc3F)nn12 (racemic) [Compound W22],0.0457
14,CCc1cc(C(=O)N2CCCCC[C@H]2C)nc2cc(-c3ccc(-n4cc(C(=O)O)c(C)n4)cc3F)nn12 (racemic) [Compound W25],0.0933
15,CCCC(C)N(CC)C(=O)c1cc(CC)n2nc(-c3ccc([C@H]4C[C@@H]4C(=O)O)cc3F)cc2n1 (relative stereo) [Compound O14],0.219
16,CCc1cc(C(=O)N2CCn3cccc3[C@H]2C)nc2cc(-c3ccc([C@H]4C[C@@H]4C(=O)O)cc3F)nn12 (relative stereo) [Compound O19],0.0309
17,"CCc1cc(C(=O)N2CCCCC[C@H]2C)nc2cc(-c3ccc(C4C[C@H]4C(=O)O)cc3F)nn12 (single isomer, unassigned) [Compound O2]",0.0589
18,CCc1cc(C(=O)N2CCCCCC2C)nc2cc(C3CCCCC3)nn12 (stereo not drawn) [Compound A5],4.79
19,CCCCC(C)N(C)C(=O)c1cc(CC)n2nc(-c3ccccc3F)cc2n1 (stereo not drawn) [Compound A17],1.51
20,CC1CCCCCN1C(=O)c1cc(CC2CCCCC2)n2nc(-c3ccccc3F)cc2n1 (stereo not drawn) [Compound A20],6.31
21,CCCCc1nc(Cl)c(-c2cc3nc(C(=O)N4CCCCCC4C)cc(CC)n3n2)[nH]1 (stereo not drawn) [Compound A22],0.603

# System: not listed separately
# Assay: Cytotoxicity in HeLa cells, ATP content measured with the ATPlite kit
# Type: cell-based
# Settings: human, TOX HELA pCC50
# Experimental: as §1
row,Structure (SMILES),CC50 at 3 days [µM]
1,CCc1cc(C(=O)N2CCCCC[C@H]2C)nc2cc(-c3ccc(C4[C@@H](C(=O)O)C4(F)F)cc3F)nn12 (mixture of isomers) [Compound O18],53.7
2,CCc1cc(C(=O)N2CCCC3(CC=CC3)C2C)nc2cc(-c3ccc(-c4ccc(C(=O)O)cn4)cc3F)nn12 (racemic) [Compound F50],60.3
3,CCc1cc(C(=O)N2CCc3ccsc3C2C)nc2cc(-c3ccc(-c4ccc(C(=O)O)cn4)cc3F)nn12 (racemic) [Compound F55],> 100
4,CCc1cc(C(=O)N2CCn3c(Cl)ccc3C2C)nc2cc(-c3ccc(-c4ccc(C(=O)O)cn4)cc3F)nn12 (racemic) [Compound F56],> 100
5,CCc1cc(C(=O)N2CCc3sc(C)cc3C2C)nc2cc(-c3ccc(-c4ccc(C(=O)O)cn4)cc3F)nn12 (racemic) [Compound F58],26.3
6,CCc1cc(C(=O)N2CCCn3cccc3C2C)nc2cc(-c3ccc(-c4ccc(C(=O)O)cn4)cc3F)nn12 (racemic) [Compound F59],> 25.1
7,CCc1cc(C(=O)N2CCn3cccc3C2C)nc2cc(-c3ccc4c(c3F)OCC(C(=O)O)=C4)nn12 (racemic) [Compound F61],> 100
8,C[C@@H]1CCCCCN1C(=O)c1cc(C2(C)COC2)n2nc(-c3ccc4c(c3F)OCC(C(=O)O)=C4)cc2n1 (racemic) [Compound F62],> 25.1
9,CC1c2ccsc2CCN1C(=O)c1cc(C2(C)CC2)n2nc(-c3ccc4c(c3F)OCC(C(=O)O)=C4)cc2n1 (racemic) [Compound F67],67.6
10,C[C@@H]1c2ccccc2CCN1C(=O)c1cc(C2(C)CC2)n2nc(-c3ccc(C4C[C@H]4C(=O)O)cc3F)cc2n1 (mixture of isomers) [Compound O8],49
11,C[C@@H]1CCCCCN1C(=O)c1cc(C2(C)CC2)n2nc(-c3cccc([C@H]4C[C@@H]4C(=O)O)c3F)cc2n1 (racemic) [Compound O9],89.1
12,CCCC(C)N(CC)C(=O)c1cc(CC)n2nc(-c3ccc(C4C[C@H]4C(=O)O)cc3F)cc2n1 (mixture of isomers) [Compound O13],45.7
13,CCc1cc(C(=O)N2CCCCC[C@H]2C)nc2cc(-c3ccc(N(C)[C@H]4C[C@H](C(=O)O)C4)cc3F)nn12 (racemic) [Compound W22],87.1
14,CCc1cc(C(=O)N2CCCCC[C@H]2C)nc2cc(-c3ccc(-n4cc(C(=O)O)c(C)n4)cc3F)nn12 (racemic) [Compound W25],66.1
15,CCCC(C)N(CC)C(=O)c1cc(CC)n2nc(-c3ccc([C@H]4C[C@@H]4C(=O)O)cc3F)cc2n1 (relative stereo) [Compound O14],66.1
16,CCc1cc(C(=O)N2CCn3cccc3[C@H]2C)nc2cc(-c3ccc([C@H]4C[C@@H]4C(=O)O)cc3F)nn12 (relative stereo) [Compound O19],91.2
17,"CCc1cc(C(=O)N2CCCCC[C@H]2C)nc2cc(-c3ccc(C4C[C@H]4C(=O)O)cc3F)nn12 (single isomer, unassigned) [Compound O2]",> 25.1
18,CCc1cc(C(=O)N2CCCCCC2C)nc2cc(C3CCCCC3)nn12 (stereo not drawn) [Compound A5],33.1
19,CCCCC(C)N(C)C(=O)c1cc(CC)n2nc(-c3ccccc3F)cc2n1 (stereo not drawn) [Compound A17],40.7
20,CC1CCCCCN1C(=O)c1cc(CC2CCCCC2)n2nc(-c3ccccc3F)cc2n1 (stereo not drawn) [Compound A20],> 25.1
21,CCCCc1nc(Cl)c(-c2cc3nc(C(=O)N4CCCCCC4C)cc(CC)n3n2)[nH]1 (stereo not drawn) [Compound A22],> 25.1

# From patent US11084826B2, “RSV antiviral pyrazolo- and triazolo-pyrimidine compounds” (Janssen Sciences Ireland Unlimited Company, priority 2015, dated 2021)
